Tests used:
[1] = test system: RPMI-8226; experiment: Combination study, ATPLite 72 h, dose matrix (Synergy Score, CI50); details: combination with Compound 1
[2] = test system: RL; experiment: as above; details: combination with Compound 1, 72 h
[3] = test system: SU-DHL-10-epst; experiment: as above; details: combination with Compound 1, 72 h
[4] = test system: DOHH-2; experiment: as above; details: combination with Compound 1, 72 h
[5] = test system: HH; experiment: as above; assay type: cell-based; details: combination with Compound 1
Protocol: The method is described as follows.
Additive effect is CI=1.0. […] Antagonistic effect is CI>1.0.
The Synergy Score is calculated as: […]

[6] = test system: KARPAS-299; experiment: as above; details: combination with Compound 1
[7] = test system: OCI-Ly3; experiment: as above; details: combination with Compound 1; OCI-Ly3; 72 h
[8] = test system: TMD8; experiment: as above; details: combination with Compound 1; for CI50 growth inhibition / CI50 inhibition / Synergy Score growth inhibition / Synergy Score inhibition: TMD8, 72 h
[9] = test system: Farage; experiment: as above; details: combination with Compound 1; Farage; 72 h
[10] = test system: U-2932; experiment: as above; details: combination with Compound 1, 72 h
[11] = test system: HBL-1; experiment: as above; details: combination with Compound 1, 72 h
[12] = test system: KARPAS-422; experiment: as above; details: combination with Compound 1, 72 h
Protocol: (§1) Cells are thawed from a liquid nitrogen preserved state. Once cells have been expanded and divide at their expected doubling times, screening begins. Cells are seeded in growth media in either black 1536-well or 384-well tissue culture treated plates. Cells are then equilibrated in assay plates via centrifugation and placed in incubators attached to the Dosing Modules at 37° C. for 24 hours before treatment. […] These Tzero (To) plates are read using ultra-sensitive luminescence on Envision plate readers (Perkin Elmer). Treated assay plates are incubated with compound for 72 hours. After 72 hours, plates are developed for endpoint analysis using ATPLite. All data points are collected via automated processes, quality controlled and analyzed using Zalicus software.
(§2) where T is treated cell count and V is untreated (vehicle) cell count (at 72 hours). I ranges from 0% (when T=V) to 100% (when T=0). […] The measure of effect in the experiment can be the inhibition of cellular response relative to the untreated level (vehicle alone). […] The inhibition ranges from 0% at the untreated level to 100% when T=0. Inhibition levels are negative for agents that actually increase levels. Other effect measures, such as an activity ratio r=T/V may be more appropriate for some assays. When activity ratios (e.g, fold increase over stimulated control) are being used, the effect can be measured using an induction 1=ln(T/V). With this definition, all effect expressions are the same as for inhibition.
(§3) Growth Inhibition (GI) is used as a measure of cell viability. […] A GI reading of 100% represents complete growth inhibition—T72 compound-treated and T0 vehicle signals are matched. […] A GI reading of 200% represents complete death of all cells in the culture well. Compounds reaching an activity plateau of GI 200% are considered cytotoxic. GI is calculated by applying the following test and equation:
(§4) Combination analysis data were collected in a 6×6 dose matrix. Synergy is calculated by comparing a combination's response to those of its single compound, against the drug-with-itself dose-additive reference model. Deviations from dose additivity may be assessed visually on an isobologram or numerically with a Combination Index (CI). […] Additive effect is CI=1.0. […] Antagonistic effect is CI>1.0.
(§5) To measure combination effects in excess of Loewe additivity, a scalar measure to characterize the strength of synergistic interaction termed the Synergy Score is devised. The Synergy Score is calculated as:
(§6) The fractional inhibition for each component agent and combination point in the matrix is calculated relative to the median of all vehicle-treated control wells. The Synergy Score equation integrates the experimentally-observed activity volume at each point in the matrix in excess of a model surface numerically derived from the activity of the component agents using the Loewe model for additivity. Additional terms in the Synergy Score equation (above) are used to normalize for various dilution factors used for individual agents and to allow for comparison of synergy scores across an entire experiment. The inclusion of positive inhibition gating or an Idata multiplier removes noise near the zero effect level, and biases results for synergistic interactions at that occur at high activity levels.
(§7) Loewe Volume (Loewe Vol) is used to assess the overall magnitude of the combination interaction in excess of the Loewe additivity model. Loewe Volume is particularly useful when distinguishing synergistic increases in a phenotypic activity (positive Loewe Volume) versus synergistic antagonisms (negative Loewe Volume). […] This model defines additivity as a non-synergistic combination interaction where the combination dose matrix surface should be indistinguishable from either drug crossed with itself.

[13] = test system: WSU-NHL; experiment: as above; details: combination with Compound 1, 72 h
[14] = test system: GRANTA-519; experiment: as above; details: combination with Compound 1
Protocol: as §1, §2, §3, §4, §5, §6, §7

[15] = test system: OCI-Ly7; experiment: as above; details: combination with Compound 1, 72 h
[16] = test system: NCI-H929; experiment: as above; details: combination with Compound 1
[17] = test system: SU-DHL-4-epst; experiment: as above; details: combination with Compound 1, 72 h
[18] = test system: OMP-2; experiment: as above; details: combination with Compound 1; OPM-2
[19] = as above; details: combination with Compound 1; OPM-2
[20] = test system: Jeko-1; experiment: as above; details: combination with Compound 1
[21] = test system: Mino; experiment: as above; details: combination with Compound 1

CS(=O)(=O)N1CCN(Cc2cc3nc(-c4cccc5[nH]ncc45)nc(N4CCOCC4)c3s2)CC1 [GDC-0941, 2-(1H-indazol-4-yl)-6-((4-(methylsulfonyl)piperazin-1-yl)methyl)-4-morpholinothieno[3,2-d]pyrimidine]
S (S=0.01 to <0.5): CI50 growth inhibition [3] | CI50 inhibition [9] | CI50 growth inhibition [14] | CI50 growth inhibition [20] | CI50 inhibition [20] | CI50 growth inhibition [21]
T (T=0.5 to <0.7): CI50 inhibition [3] | CI50 growth inhibition [4] | CI50 inhibition [4] | CI50 growth inhibition [9] | CI50 growth inhibition [10] | CI50 growth inhibition [12] | CI50 inhibition [13] | CI50 growth inhibition [16] | CI50 inhibition [16] | CI50 growth inhibition [17] | CI50 inhibition [17] | CI50 inhibition [21]
A1 (A1=0.0001 to <1): Synergy Score inhibition [1] | Synergy Score growth inhibition [5] | Synergy Score inhibition [5] | Synergy Score growth inhibition [6] | Synergy Score inhibition [6] | Synergy Score growth inhibition [7] | Synergy Score inhibition [7] | Synergy Score growth inhibition [10] | Synergy Score inhibition [10] | Synergy Score inhibition [11] | Synergy Score growth inhibition [12] | Synergy Score inhibition [12] | Synergy Score inhibition [14] | Synergy Score growth inhibition [15] | Synergy Score inhibition [15] | Synergy Score inhibition [18] | Synergy Score growth inhibition [20] | Synergy Score inhibition [20]
W (W=≥1): CI50 inhibition [1] | CI50 growth inhibition [5] | CI50 inhibition [5] | CI50 growth inhibition [6] | CI50 inhibition [7] | CI50 inhibition [8] | CI50 inhibition [10] | CI50 inhibition [11] | CI50 inhibition [15] | CI50 inhibition [18]
U (U=0.7 to <1): CI50 growth inhibition [1] | CI50 growth inhibition [2] | CI50 inhibition [2] | CI50 growth inhibition [7] | CI50 growth inhibition [8] | CI50 growth inhibition [11] | CI50 inhibition [12] | CI50 growth inhibition [13] | CI50 inhibition [14] | CI50 growth inhibition [15] | CI50 growth inhibition [19]
A2 (A2=1 to <3): Synergy Score growth inhibition [1] | Synergy Score growth inhibition [2] | Synergy Score inhibition [2] | Synergy Score inhibition [3] | Synergy Score inhibition [4] | Synergy Score inhibition [8] | Synergy Score inhibition [9] | Synergy Score growth inhibition [11] | Synergy Score inhibition [13] | Synergy Score growth inhibition [14] | Synergy Score inhibition [16] | Synergy Score inhibition [17] | Synergy Score growth inhibition [21] | Synergy Score inhibition [21]
A3 (A3=>3): Synergy Score growth inhibition [3] | Synergy Score growth inhibition [4] | Synergy Score growth inhibition [8] | Synergy Score growth inhibition [9] | Synergy Score growth inhibition [13] | Synergy Score growth inhibition [16] | Synergy Score growth inhibition [17] | Synergy Score growth inhibition [18]

CC(=O)Nc1cccc(-n2c(=O)n(C3CC3)c(=O)c3c(Nc4ccc(I)cc4F)n(C)c(=O)c(C)c32)c1 [trametinib, N-(3-{3-cyclopropyl-5-[(2-fluoro-4-iodophenyl)amino]-6,8-dimethyl-2,4,7-trioxo-3,4,6,7-tetrahydropyrido[4,3-d]pyrimidin-1(2H)-yl}phenyl)acetamide]
W (W=≥1): CI50 inhibition [4] | CI50 growth inhibition [7] | CI50 growth inhibition [9] | CI50 inhibition [18] | CI50 inhibition [20]
synergistic effect: effect of the combination (isobologram) ([8]; TMD8 DLBCL cell line, FIG. 1-3)
A1 (A1=0.0001 to <1): Synergy Score inhibition [1] | Synergy Score growth inhibition [2] | Synergy Score inhibition [2] | Synergy Score growth inhibition [6] | Synergy Score inhibition [6] | Synergy Score inhibition [7] | Synergy Score growth inhibition [10] | Synergy Score inhibition [10] | Synergy Score inhibition [11] | Synergy Score inhibition [14] | Synergy Score growth inhibition [15] | Synergy Score inhibition [15] | Synergy Score growth inhibition [20] | Synergy Score inhibition [20]
A3 (A3=>3): Synergy Score growth inhibition [3] | Synergy Score inhibition [3] | Synergy Score growth inhibition [4] | Synergy Score growth inhibition [5] | Synergy Score growth inhibition [8] | Synergy Score inhibition [8] | Synergy Score growth inhibition [13] | Synergy Score inhibition [13] | Synergy Score growth inhibition [16] | Synergy Score growth inhibition [17] | Synergy Score growth inhibition [21] | Synergy Score inhibition [21]
A2 (A2=1 to <3): Synergy Score growth inhibition [1] | Synergy Score inhibition [4] | Synergy Score inhibition [5] | Synergy Score growth inhibition [7] | Synergy Score growth inhibition [9] | Synergy Score inhibition [9] | Synergy Score growth inhibition [11] | Synergy Score growth inhibition [12] | Synergy Score inhibition [12] | Synergy Score growth inhibition [14] | Synergy Score inhibition [16] | Synergy Score inhibition [17] | Synergy Score growth inhibition [18] | Synergy Score inhibition [18]
U (U=0.7 to <1): CI50 growth inhibition [1] | CI50 growth inhibition [4] | CI50 inhibition [9] | CI50 growth inhibition [10] | CI50 growth inhibition [11] | CI50 growth inhibition [20]
T (T=0.5 to <0.7): CI50 growth inhibition [13] | CI50 growth inhibition [16] | CI50 growth inhibition [19]
S (S=0.01 to <0.5): CI50 growth inhibition [3] | CI50 inhibition [3] | CI50 growth inhibition [5] | CI50 inhibition [5] | CI50 growth inhibition [8] | CI50 inhibition [8] | CI50 growth inhibition [12] | CI50 inhibition [12] | CI50 inhibition [13] | CI50 growth inhibition [14] | CI50 inhibition [16] | CI50 growth inhibition [17] | CI50 inhibition [17] | CI50 growth inhibition [21] | CI50 inhibition [21]
